Laboratory results from PubChem BioAssay AID200 (DTP/NCI, 2004).
Values joined by “and” are separate entries in the source; they are usually repeats but may differ in a detail not shown here. Equal entries are not always repeated. Toxic doses and inconclusive results are not listed. *1 amine or outer side, *2 acyl side, *3 side chain or, on linkers, in order; H or OH if unused. Where a SMILES comes first, the peptide text is derived from it. Bridges are numbered along the chain shown (N, C = ends). Roman numbers before positions name the chains, in order. [ ]: non-standard residue; d: D form. Actinocin(9to1) = Cc1c2oc3c(C)ccc(C(=O)[*:1])c3nc-2c(C(=O)[*:2])c(N)c1=O; NMeA = CN[CH](C)C(=O)O; Sar = CNCC(=O)O

Test system: B6C3F1 mice, B16 melanoma ip, median survival T/C
Assay: NCI In Vivo Anticancer Drug Screen. Data for tumor model B16 Melanoma (intraperitoneal) in B6C3F1 mice
Settings: endpoint: median survival time, higher = longer survival
In short: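 Transplantable tumor in mice; treated vs vehicle control groups; survival or tumor size measured; value = T/C ratio.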

[1] = dose: 6.25 mg/kg/injection, schedule: Q01DX009 (ip), vehicle: saline
[2] = dose: 12.5 mg/kg/injection, schedule: Q01DX009 (ip), vehicle: saline
[3] = dose: 25.0 mg/kg/injection, schedule: Q01DX009 (ip), vehicle: saline
[4] = dose: 12.5 mg/kg/injection, schedule: Q01DX009 (ip), vehicle: saline with Tween-80
[5] = dose: 25.0 mg/kg/injection, schedule: Q01DX009 (ip), vehicle: saline with Tween-80
[6] = dose: 50.0 mg/kg/injection, schedule: Q01DX009 (ip), vehicle: saline with Tween-80
[7] = dose: 6.25 mg/kg/injection, schedule: Q01DX009 (ip), vehicle: saline with Tween-80
[8] = dose: 100.0 mg/kg/injection, schedule: Q01DX009 (ip), vehicle: saline with Tween-80
[9] = dose: 200.0 mg/kg/injection, schedule: Q01DX009 (ip), vehicle: saline with Tween-80
[10] = dose: 50.0 mg/kg/injection, schedule: Q01DX009 (ip), vehicle: Klucel (hydroxypropylcellulose) (HPC)
[11] = dose: 100.0 mg/kg/injection, schedule: Q01DX009 (ip), vehicle: Klucel (hydroxypropylcellulose) (HPC)
[12] = dose: 1.56 mg/kg/injection, schedule: Q01DX009 (ip), vehicle: saline with Tween-80
[13] = dose: 3.12 mg/kg/injection, schedule: Q01DX009 (ip), vehicle: saline with Tween-80
[14] = dose: 0.25 mg/kg/injection, schedule: Q01DX009 (ip), vehicle: saline + alcohol
[15] = dose: 0.5 mg/kg/injection, schedule: Q01DX009 (ip), vehicle: saline + alcohol
[16] = dose: 1.0 mg/kg/injection, schedule: Q01DX009 (ip), vehicle: saline + alcohol
[17] = dose: 4.0 mg/kg/injection, schedule: Q01DX009 (ip), vehicle: saline + alcohol

FC(F)(F)c1ccc2c(c1)N(CCCN1CCN(CCN3CCCCC3)CC1)c1ccccc1S2
T/C (dose: 0.78 mg/kg/injection, schedule: Q01DX009 (ip), vehicle: saline): 94 % of control | T/C (dose: 1.56 mg/kg/injection, schedule: Q01DX009 (ip), vehicle: saline): 109 % of control and 89 % of control | T/C (dose: 3.12 mg/kg/injection, schedule: Q01DX009 (ip), vehicle: saline): 118 % of control and 99 % of control | T/C [1]: 99 % of control and 101 % of control | T/C [2]: 98 % of control | T/C [3]: 94 % of control

O=S(=O)(N=N/C=C1\C=CC=CN1O)c1cccs1
T/C [4]: 101 % of control | T/C [5]: 104 % of control | T/C [6]: 114 % of control

C/C=C/c1cc2c(c(=O)o1)C(=O)[C@@H](O)[C@H](C)O2
T/C [7]: 98 % of control | T/C [4]: 103 % of control | T/C [5]: 100 % of control | T/C [6]: 118 % of control | T/C [8]: 109 % of control | T/C [9]: 103 % of control

CC(C)(C)OC(=O)NCCCCC(NC(=O)OCc1ccccc1)C(=O)O (stereo not drawn)
T/C (dose: 25.0 mg/kg/injection, schedule: Q01DX009 (ip), vehicle: Klucel (hydroxypropylcellulose) (HPC)): 109 % of control | T/C [10]: 94 % of control | T/C [11]: 98 % of control

C1OC1CN1CCN(CC2CO2)CC1 (stereo not drawn)
T/C (dose: 4.0 mg/kg/injection, schedule: Q01DX009 (ip), vehicle: saline with Tween-80): 103 % of control | T/C (dose: 16.0 mg/kg/injection, schedule: Q01DX009 (ip), vehicle: saline with Tween-80): 110 % of control

N=C(N)c1ccc(/C=C/c2ccc(C(=N)N)cc2)cc1
T/C (dose: 16.0 mg/kg/injection, schedule: Q01DX009 (ip), vehicle: Klucel (hydroxypropylcellulose) (HPC)): 101 % of control | T/C (dose: 32.0 mg/kg/injection, schedule: Q01DX009 (ip), vehicle: Klucel (hydroxypropylcellulose) (HPC)): 116 % of control | T/C (dose: 32.0 mg/kg/injection, schedule: Q01DX009 (ip), vehicle: saline with Tween-80): 101 % of control | T/C (dose: 64.0 mg/kg/injection, schedule: Q01DX009 (ip), vehicle: Klucel (hydroxypropylcellulose) (HPC)): 97 % of control | T/C (dose: 64.0 mg/kg/injection, schedule: Q01DX009 (ip), vehicle: saline with Tween-80): 101 % of control

COc1cc2c(oc(=O)c3cc(C)cc(OC)c32)c2c(C3OC(C)C(O)C(C)(O)C3O)ccc(O)c12 (stereo not drawn)
T/C (dose: 1.56 mg/kg/injection, schedule: Q01DX009 (ip), vehicle: DMSO): 94 % of control and 103 % of control | T/C (dose: 3.12 mg/kg/injection, schedule: Q01DX009 (ip), vehicle: DMSO): 109 % of control and 107 % of control | T/C (dose: 6.0 mg/kg/injection, schedule: Q01DX009 (ip), vehicle: DMSO): 88 % of control | T/C (dose: 6.25 mg/kg/injection, schedule: Q01DX009 (ip), vehicle: DMSO): 119 % of control and 96 % of control and 104 % of control | T/C (dose: 12.0 mg/kg/injection, schedule: Q01DX009 (ip), vehicle: DMSO): 96 % of control | T/C (dose: 12.5 mg/kg/injection, schedule: Q01DX009 (ip), vehicle: DMSO): 121 % of control

CC(C)(C)Oc1ccc(CC(NC(=O)OCC2c3ccccc3-c3ccccc32)C(=O)O)cc1 (stereo not drawn)
T/C [10]: 107 % of control | T/C [11]: 108 % of control | T/C (dose: 200.0 mg/kg/injection, schedule: Q01DX009 (ip), vehicle: Klucel (hydroxypropylcellulose) (HPC)): 105 % of control

CCCCCCCCCCCCN1C(C)=CS/C1=C\C=C\c1scc(C)[n+]1CCCCCCCCCCCC
T/C (dose: 0.78 mg/kg/injection, schedule: Q01DX009 (ip), vehicle: saline with Tween-80): 99 % of control and 108 % of control | T/C [12]: 99 % of control and 105 % of control | T/C [13]: 108 % of control

CC(=O)c1ccc(C)cc1C
T/C [5]: 105 % of control | T/C [6]: 92 % of control | T/C [8]: 98 % of control

CO[C@@]12[C@@H]3N[C@@H]3CN1C1=C(C(=O)C(NCc3ccco3)=C(C)C1=O)[C@@H]2COC(N)=O
T/C (dose: 4.5 mg/kg/injection, schedule: Q01DX001 (ip), vehicle: distilled water + Tween-80): 170 % of control | T/C (dose: 9.0 mg/kg/injection, schedule: Q01DX001 (ip), vehicle: distilled water + Tween-80): 186 % of control | T/C (dose: 18.0 mg/kg/injection, schedule: Q01DX001 (ip), vehicle: distilled water + Tween-80): 219 % of control | T/C (dose: 36.0 mg/kg/injection, schedule: Q01DX001 (ip), vehicle: distilled water + Tween-80): 247 % of control

COc1cccc2c1C(=O)c1c(O)c3c(c(O)c1C2=O)CC(O)(C(C)=O)CC3OC1CC(NC(=O)C(CCCCN)NC(=O)C2CCCN2)C(O)C(C)O1 (stereo not drawn)
T/C (dose: 1.25 mg/kg/injection, schedule: Q01DX001 (ip), vehicle: water): 112 % of control | T/C (dose: 2.5 mg/kg/injection, schedule: Q01DX001 (ip), vehicle: water): 110 % of control | T/C (dose: 20.0 mg/kg/injection, schedule: Q01DX001 (ip), vehicle: water): 176 % of control | T/C (dose: 40.0 mg/kg/injection, schedule: Q01DX001 (ip), vehicle: water): 267 % of control

CC(C(C(=O)N1CCCCC1)N1CCCCC1)N1CCCCC1 (stereo not drawn)
T/C [8]: 94 % of control | T/C [9]: 95 % of control | T/C (dose: 400.0 mg/kg/injection, schedule: Q01DX009 (ip), vehicle: saline with Tween-80): 103 % of control

CN1CCN(c2ccc3nc(-c4ccc5nc(-c6ccc(O)cc6)[nH]c5c4)[nH]c3c2)CC1
T/C [1]: 95 % of control | T/C [2]: 99 % of control | T/C [3]: 89 % of control

Clc1ccccc1N1CCN(CCCN2CCN(c3ccccc3Cl)CC2)CC1
T/C (dose: 3.13 mg/kg/injection, schedule: Q01DX009 (ip), vehicle: saline with Tween-80): 100 % of control | T/C [7]: 95 % of control | T/C [4]: 94 % of control | T/C [5]: 99 % of control

CO[C@@H]1[C@H](O)CC[C@]2(CO2)[C@H]1[C@@]1(C)O[C@@H]1CC=C(C)C
T/C [12]: 102 % of control and 105 % of control | T/C [13]: 108 % of control and 109 % of control and 122 % of control | T/C (dose: 3.13 mg/kg/injection, schedule: Q01DX009 (ip), vehicle: saline): 108 % of control | T/C [1]: 111 % of control | T/C [8]: 104 % of control

Cc1c2oc3c(C)ccc(C(=O)NC4C(=O)NC(C(C)C)C(=O)N5CCCC5C(=O)N(C)CC(=O)N(C)C(C)C(=O)OC4C)c3nc-2c(C(=O)NC2C(=O)NC(C(C)C)C(=O)N3CCCC3C(=O)N(C)CC(=O)N(C)C(C)C(=O)OC2C)c(N)c1=O (stereo not drawn) (I: TVP[Sar][NMeA] / II: TVP[Sar][NMeA]; ester I:1-I:C, II:1-II:C; linker I:N-II:N via Actinocin(9to1); configuration not given here)
T/C (dose: 0.25 mg/kg/injection, schedule: Q04DX003 (ip), vehicle: saline + alcohol): 116 % of control | T/C (dose: 0.5 mg/kg/injection, schedule: Q04DX003 (ip), vehicle: saline + alcohol): 118 % of control | T/C (dose: 1.0 mg/kg/injection, schedule: Q04DX003 (ip), vehicle: saline + alcohol): 112 % of control and 113 % of control | T/C (dose: 2.0 mg/kg/injection, schedule: Q04DX003 (ip), vehicle: saline + alcohol): 116 % of control and 104 % of control | T/C (dose: 4.0 mg/kg/injection, schedule: Q04DX003 (ip), vehicle: saline + alcohol): 115 % of control

CCC(C)(OC(C)=O)C(=O)OC1C(=O)OC2CC3C(C)=CC(O)C(O)C3(C)C3C4(O)OCC23C1C(C)C4O (stereo not drawn)
T/C [14]: 100 % of control | T/C [15]: 115 % of control | T/C [16]: 112 % of control | T/C (dose: 2.0 mg/kg/injection, schedule: Q01DX009 (ip), vehicle: saline + alcohol): 109 % of control | T/C [17]: 109 % of control

CC1=C(C)C(=O)O[C@@H]([C@](C)(O)[C@]2(O)CC[C@@]3(O)[C@@H]4C[C@H]5O[C@]56[C@@H](O)C=CC(=O)[C@]6(C)[C@H]4CC[C@]23C)C1
T/C [14]: 122 % of control | T/C (dose: 0.25 mg/kg/injection, schedule: Q01DX009 (ip), vehicle: saline): 107 % of control | T/C [15]: 117 % of control | T/C (dose: 0.5 mg/kg/injection, schedule: Q01DX009 (ip), vehicle: saline): 116 % of control | T/C [16]: 122 % of control | T/C (dose: 1.0 mg/kg/injection, schedule: Q01DX009 (ip), vehicle: saline): 115 % of control and 124 % of control | T/C (dose: 2.0 mg/kg/injection, schedule: Q01DX009 (ip), vehicle: saline): 115 % of control | T/C [17]: 150 % of control | T/C (dose: 16.0 mg/kg/injection, schedule: Q01DX009 (ip), vehicle: saline): 152 % of control and 171 % of control | T/C (dose: 16.0 mg/kg/injection, schedule: Q01DX009 (ip), vehicle: suspension in saline): 170 % of control
